Toxic doses and inconclusive results are not listed. Rule for the calls: active = survival T/C of 150% or more; inactive = T/C below 125% in these data.
Tested on: BDF1 mice, B16 melanoma ip, median survival T/C
Test: NCI In Vivo Anticancer Drug Screen. Data for tumor model B16 Melanoma (intraperitoneal) in B6D2F1 (BDF1) mice
Conditions: endpoint: median survival time, higher = longer survival
How it was run: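 Read-out: survival or tumor size, given as treated/control ratio. Controls received vehicle only; animals bore transplantable tumors.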

[1] = dose: 12.5 mg/kg/injection, schedule: Q01DX009 (ip), vehicle: saline with Tween-80
[2] = dose: 25.0 mg/kg/injection, schedule: Q01DX009 (ip), vehicle: saline with Tween-80
[3] = dose: 50.0 mg/kg/injection, schedule: Q01DX009 (ip), vehicle: saline with Tween-80
[4] = dose: 100.0 mg/kg/injection, schedule: Q01DX009 (ip), vehicle: saline with Tween-80
[5] = dose: 200.0 mg/kg/injection, schedule: Q01DX009 (ip), vehicle: saline with Tween-80
[6] = dose: 3.13 mg/kg/injection, schedule: Q01DX009 (ip), vehicle: saline
[7] = dose: 6.25 mg/kg/injection, schedule: Q01DX009 (ip), vehicle: saline

Measured: T/C

O=C(O)C(=O)O.O=C([O-])C(=O)[O-].O=C([O-])C(=O)[O-].[NH-]CC[NH-].[NH-]CC[NH-].[NH-]CC[NH-].[Ru+4].[Ru+5]
inactive: dose: 12.5 mg/kg/injection, schedule: Q04DX003 (ip), vehicle: water 112 % of control | dose: 25.0 mg/kg/injection, schedule: Q04DX003 (ip), vehicle: water 107 % of control

CN=C(N)N/N=C(\C)c1ccc2oc3ccc(/C(C)=N/NC(N)=NC)cc3c2c1
inactive: [1] 106 % of control | [2] 113 % of control | [3] 102 % of control

CCOC(=O)CCCN(c1ccccc1CC(=O)OCC)S(C)(=O)=O
inactive: dose: 100.0 mg/kg/injection, schedule: Q04DX003 (ip), vehicle: Klucel (hydroxypropylcellulose) (HPC) 96 % of control | dose: 200.0 mg/kg/injection, schedule: Q04DX003 (ip), vehicle: Klucel (hydroxypropylcellulose) (HPC) 104 % of control | dose: 400.0 mg/kg/injection, schedule: Q04DX003 (ip), vehicle: Klucel (hydroxypropylcellulose) (HPC) 96 % of control

Cc1ccc(NS(=O)(=O)c2cccc([N+](=O)[O-])c2)cc1Cl
inactive: [4] 107 % of control | [5] 105 % of control | dose: 400.0 mg/kg/injection, schedule: Q01DX009 (ip), vehicle: saline with Tween-80 96 % of control

COc1ccccc1N1CCCSC1=Nc1ccccc1
inactive: dose: 12.5 mg/kg/injection, schedule: Q01DX009 (ip), vehicle: Klucel (hydroxypropylcellulose) (HPC) 98 % of control | dose: 25.0 mg/kg/injection, schedule: Q01DX009 (ip), vehicle: Klucel (hydroxypropylcellulose) (HPC) 95 % of control | dose: 50.0 mg/kg/injection, schedule: Q01DX009 (ip), vehicle: Klucel (hydroxypropylcellulose) (HPC) 95 % of control | dose: 100.0 mg/kg/injection, schedule: Q01DX009 (ip), vehicle: Klucel (hydroxypropylcellulose) (HPC) 100 % of control | dose: 200.0 mg/kg/injection, schedule: Q01DX009 (ip), vehicle: Klucel (hydroxypropylcellulose) (HPC) 100 % of control

O=C1c2cccnc2C(=O)c2c(O)ccc(O)c21
inactive: [2] 92 % of control | [3] 103 % of control | [4] 112 % of control | [5] 89 % of control

N#CCN(CC#N)CC#N
inactive: dose: 1.56 mg/kg/injection, schedule: Q01DX009 (ip), vehicle: saline 97 % of control | [6] 102 % of control | dose: 3.13 mg/kg/injection, schedule: Q04DX003 (ip), vehicle: saline with Tween-80 113 % of control | [7] 100 % of control | dose: 6.25 mg/kg/injection, schedule: Q04DX003 (ip), vehicle: saline with Tween-80 94 % of control

COc1cccc(/C=C/[N+](=O)[O-])c1OC
inactive: dose: 35.0 mg/kg/injection, schedule: Q01DX009 (ip), vehicle: saline with Tween-80 117 % of control | dose: 70.0 mg/kg/injection, schedule: Q01DX009 (ip), vehicle: saline with Tween-80 104 % of control

CN1CCc2cc3c(cc2C(=O)Cc2ccc4c(c2C1)OCO4)OCO3
inactive: [2] 115 % of control | dose: 25.0 mg/kg/injection, schedule: Q04DX003 (ip), vehicle: saline with Tween-80 117 % of control | [3] 112 % of control | dose: 50.0 mg/kg/injection, schedule: Q04DX003 (ip), vehicle: saline with Tween-80 114 % of control | [4] 105 % of control | dose: 100.0 mg/kg/injection, schedule: Q04DX003 (ip), vehicle: saline with Tween-80 94 % of control

CCC(C)CC(=O)O (configuration not stated)
inactive: dose: 100.0 mg/kg/injection, schedule: Q01DX009 (ip), vehicle: saline 97 % of control | dose: 200.0 mg/kg/injection, schedule: Q01DX009 (ip), vehicle: saline 97 % of control | dose: 400.0 mg/kg/injection, schedule: Q01DX009 (ip), vehicle: saline 93 % of control

CN(N=O)C(N)=O
inactive: [6] 114 % of control | [7] 116 % of control

O=c1ccc2nc3ccccc3sc-2c1
inactive: [1] 93 % of control | [2] 86 % of control | [3] 95 % of control | [4] 91 % of control

Source: PubChem BioAssay AID192 (DTP/NCI, 2004)
